# Assays:
# [1] = test system: Salmonella typhimurium; assay: Antimicrobial activity against Salmonella enterica serovar Typhimurium transconjugant p61/9T expressing qnrB19 gene variant carried by IncL/M-like plasmid by Etest; assay type: functional, Salmonella enterica subsp. enterica serovar Typhimurium
# [2] = test system: Salmonella typhimurium; assay: Antimicrobial activity against Salmonella enterica serovar Typhimurium STYM61/9 expressing qnrB19 gene variant carried by IncL/M-like plasmid by Etest; assay type: functional, Salmonella enterica subsp. enterica serovar Typhimurium
# [3] = test system: Escherichia coli; assay: Antimicrobial activity against Escherichia coli CSH26RifR receiving qnrB19 gene variant carried by IncL/M-like plasmid from Salmonella enterica serovar Typhimurium STYM61/9 by Etest; assay type: functional
SMILES,MIC [1] [µg/mL],MIC [2] [µg/mL],MIC [3] [µg/mL]
O=C(O)c1cn(C2CC2)c2cc(N3CCNCC3)c(F)cc2c1=O [CIPROFLOXACIN],0.19,0.38,
COc1c(N2C[C@@H]3CCCN[C@@H]3C2)c(F)cc2c(=O)c(C(=O)O)cn(C3CC3)c12 [MOXIFLOXACIN],0.5,0.5,0.047
CCn1cc(C(=O)O)c(=O)c2ccc(C)nc21 [NALIDIXIC ACID],16,12,4
CCn1cc(C(=O)O)c(=O)c2cc(F)c(N3CCNCC3)cc21 [NORFLOXACIN],0.5,1,0.064
CC1COc2c(N3CCN(C)CC3)c(F)cc3c(=O)c(C(=O)O)cn1c23 (centres undefined) [OFLOXACIN],0.75,0.75,0.064
